Patent US20250129069A1, “TRIAZOLO WRN INHIBITORS” (Nimbus Wadjet, Inc., priority 2023, published 2025)

Legend:
[1] = biological target: human Werner helicase (WRN, amino acids 517-1235 with L1074F point mutation) (Homo sapiens (Human), UniProt Q14191, L1074F); assay: WRN (BV08) ADP-Glo assay; assay type: biochemical; settings: human WRN (aa 517-1235, L1074F), read-out: ADP-Glo_hWRN_IC50
In short: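 ADP-Glo luminescence read after 60 min, 25 °C reaction of 0.15 nM WRN (517-1235, L1074F, Sf9-expressed, tag removed) with 0.1 nM DNA duplex and 5 μM ATP, following 15 min compound preincubation; 20 mM Bicine pH 7.5, 1% DMSO. IC50 from 3- or 4-parameter fit of % inhibition.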

[2] = test system: p21 induction in HCT 116 cells; assay: p21 induction in cells (In-Cell Western, p21/GAPDH ratio); assay type: cell-based; settings: Homo sapiens, 24 h compound incubation, read-out: p21_EC50
In short: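 EC50 values come from nonlinear fits of percent activation, defined by the 800/700 nm p21-to-GAPDH ratio scaled between DMSO (low) and internal WRN inhibitor (high) controls. In-Cell Western read after 24 h compound exposure of HCT 116 cells at 37° C. Duplicate 11-point series, 2-fold steps, usually starting at 10 μM.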

Chain of human Werner helicase (WRN, amino acids 517-1235 with L1074F point mutation) (Q14191 other isoform, or with tags, fused parts or gaps L1074F (already in the parent)): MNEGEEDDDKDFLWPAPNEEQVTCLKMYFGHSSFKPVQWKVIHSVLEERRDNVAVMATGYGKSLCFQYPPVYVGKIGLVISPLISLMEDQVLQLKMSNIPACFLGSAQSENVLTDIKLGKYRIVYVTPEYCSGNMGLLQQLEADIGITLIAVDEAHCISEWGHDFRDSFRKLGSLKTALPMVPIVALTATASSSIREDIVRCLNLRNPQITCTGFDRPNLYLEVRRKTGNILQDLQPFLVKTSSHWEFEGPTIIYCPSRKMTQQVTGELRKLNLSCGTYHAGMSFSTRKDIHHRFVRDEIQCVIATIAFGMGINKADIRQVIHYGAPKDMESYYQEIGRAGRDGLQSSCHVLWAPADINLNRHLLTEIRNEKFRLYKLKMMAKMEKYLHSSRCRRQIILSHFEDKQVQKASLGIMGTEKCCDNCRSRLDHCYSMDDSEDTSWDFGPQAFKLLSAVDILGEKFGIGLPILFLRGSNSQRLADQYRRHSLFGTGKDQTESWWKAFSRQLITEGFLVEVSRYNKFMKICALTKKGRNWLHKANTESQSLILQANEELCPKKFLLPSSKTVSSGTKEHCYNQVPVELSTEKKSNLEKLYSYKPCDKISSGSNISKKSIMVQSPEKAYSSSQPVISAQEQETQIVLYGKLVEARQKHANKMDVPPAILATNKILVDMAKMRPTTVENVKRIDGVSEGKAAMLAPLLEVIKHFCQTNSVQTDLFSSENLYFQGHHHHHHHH

IC50 [1]	EC50 [2]	SMILES
5 to 50 nM	≤ 500 nM	CCc1c(N2CCN(C(=O)c3cc4cc[nH]c4nc3OC)[C@H]3CC[C@@H]32)c(=O)c2nn(C3=CCOCC3)nc2n1CC(=O)NC12CC(C(C)C)(C1)C2 [Compound I-157, 2-[2-(3,6-dihydro-2H-pyran-4-yl)-5-ethyl-6-[(1S,6S)-5-{6-methoxy-1H-pyrrolo[2,3-b]pyridine-5-carbonyl}-2,5-diazabicyclo[4.2.0]octan-2-yl]-7-oxo-2H,4H,7H-[1,2,3]triazolo[4,5-b]pyridin-4-yl]-N-[3-(propan-2-yl)bicyclo[1.1.1]pentan-1-yl]acetamide]
5 to 50 nM	≤ 500 nM	CCc1c(N2CCN(C(=O)c3ccc4cccc(O)c4n3)[C@H]3CC[C@@H]32)c(=O)c2nn(C3=CCOCC3)nc2n1CC(=O)NC12CC(C(C)C)(C1)C2 [Compound I-158, 2-[2-(3,6-dihydro-2H-pyran-4-yl)-5-ethyl-6-[(1S,6S)-5-(8-hydroxyquinoline-2-carbonyl)-2,5-diazabicyclo[4.2.0]octan-2-yl]-7-oxo-2H,4H,7H-[1,2,3]triazolo[4,5-b]pyridin-4-yl]-N-[3-(propan-2-yl)bicyclo[1.1.1]pentan-1-yl]acetamide]
5 to 50 nM	500 to 2000 nM	CCc1c(N2CCN(C(=O)c3ccc4cccnc4c3O)[C@H]3CC[C@@H]32)c(=O)c2nn(C3=CCOCC3)nc2n1CC(=O)NC12CC(C(C)C)(C1)C2 [Compound I-159, 2-[2-(3,6-dihydro-2H-pyran-4-yl)-5-ethyl-6-[(1S,6S)-5-(8-hydroxyquinoline-7-carbonyl)-2,5-diazabicyclo[4.2.0]octan-2-yl]-7-oxo-2H,4H,7H-[1,2,3]triazolo[4,5-b]pyridin-4-yl]-N-[3-(propan-2-yl)bicyclo[1.1.1]pentan-1-yl]acetamide]
5 to 50 nM	2000 to 5000 nM	CCc1c(N2CCN(C(=O)c3ncnc(C)c3O)[C@H]3CC[C@@H]32)c(=O)c2nn(C3CC4(COC4)C3)nc2n1CC(=O)NC12CC(C(C)C)(C1)C2 [Compound I-160, 2-{5-ethyl-6-[(1S,6S)-5-(5-hydroxy-6-methylpyrimidine-4-carbonyl)-2,5-diazabicyclo[4.2.0]octan-2-yl]-2-{2-oxaspiro[3.3]heptan-6-yl}-7-oxo-2H,4H,7H-[1,2,3]triazolo[4,5-b]pyridin-4-yl}-N-[3-(propan-2-yl)bicyclo[1.1.1]pentan-1-yl]acetamide]
5 to 50 nM	> 5000 nM	CCc1c(N2CCN(C(=O)c3ccccc3C(=O)O)CC2)c(=O)c2nn(-c3ccnc(OC)c3)nc2n1CC(=O)NC12CC(C3CC3)(C1)C2 [Compound I-161, 2-(4-{4-[{{3-cyclopropylbicyclo[1.1.1]pentan-1-yl}carbamoyl)methyl]-5-ethyl-2-(2-methoxypyridin-4-yl)-7-oxo-2H,4H,7H-[1,2,3]triazolo[4,5-b]pyridin-6-yl}piperazine-1-carbonyl)benzoic acid]
5 to 50 nM	≤ 500 nM	CCc1c(N2CCN(C(=O)OC)[C@H]3CC[C@@H]32)c(=O)c2nn(C3=CCOCC3)nc2n1CC(=O)NC12CC(C(C)C)(C1)C2 [Compound I-162, methyl (1S,6S)-5-[2-(3,6-dihydro-2H-pyran-4-yl)-5-ethyl-7-oxo-4-({[3-(propan-2-yl)bicyclo[1.1.1]pentan-1-yl]carbamoyl}methyl)-2H,4H,7H-[1,2,3]triazolo[4,5-b]pyridin-6-yl]-2,5-diazabicyclo[4.2.0]octane-2-carboxylate]
5 to 50 nM	> 5000 nM	CCc1c(N2CCN(C(=O)c3ncnc(C)c3O)[C@H]3CC[C@@H]32)c(=O)c2nn(-c3ncccc3F)nc2n1CC(=O)NC12CC(C(C)C)(C1)C2 [Compound I-163, 2-[5-ethyl-2-(3-fluoropyridin-2-yl)-6-[(1S,6S)-5-(5-hydroxy-6-methylpyrimidine-4-carbonyl)-2,5-diazabicyclo[4.2.0]octan-2-yl]-7-oxo-2H,4H,7H-[1,2,3]triazolo[4,5-b]pyridin-4-yl]-N-[3-(propan-2-yl)bicyclo[1.1.1]pentan-1-yl]acetamide]
5 to 50 nM	≤ 500 nM	CCc1c(N2CCN(C(=O)c3ncnc(C)c3O)[C@H]3CC[C@@H]32)c(=O)c2nn(C3=CC(C)OCC3)nc2n1CC(=O)NC12CC(C3CC3)(C1)C2 (stereo partly drawn) [Compound I-164, N-{3-cyclopropylbicyclo[1.1.1]pentan-1-yl}-2-{5-ethyl-6-[(1S,6S)-5-(5-hydroxy-6-methylpyrimidine-4-carbonyl)-2,5-diazabicyclo[4.2.0]octan-2-yl]-2-(6-methyl-3,6-dihydro-2H-pyran-4-yl)-7-oxo-2H,4H,7H-[1,2,3]triazolo[4,5-b]pyridin-4-yl}acetamide]
5 to 50 nM	500 to 2000 nM	CCc1c(N2CCN(C(=O)c3cc(N4CCN(C)CC4)ccc3OC)[C@H]3CC[C@@H]32)c(=O)c2nn(C3=CCOCC3)nc2n1CC(=O)NC12CC(C(C)C)(C1)C2 [Compound I-165, 2-[2-(3,6-dihydro-2H-pyran-4-yl)-5-ethyl-6-[(1S,6S)-5-[2-methoxy-5-(4-methylpiperazin-1-yl)benzoyl]-2,5-diazabicyclo[4.2.0]octan-2-yl]-7-oxo-2H,4H,7H-[1,2,3]triazolo[4,5-b]pyridin-4-yl]-N-[3-(propan-2-yl)bicyclo[1.1.1]pentan-1-yl]acetamide]
5 to 50 nM	500 to 2000 nM	CCc1c(N2CCN(C(=O)c3[nH]ncc3OC)[C@H]3CC[C@@H]32)c(=O)c2nn(C3=CCOCC3)nc2n1CC(=O)NC12CC(C(C)C)(C1)C2 [Compound I-166, 2-[2-(3,6-dihydro-2H-pyran-4-yl)-5-ethyl-6-[(1S,6S)-5-(4-methoxy-1H-pyrazole-5-carbonyl)-2,5-diazabicyclo[4.2.0]octan-2-yl]-7-oxo-2H,4H,7H-[1,2,3]triazolo[4,5-b]pyridin-4-yl]-N-[3-(propan-2-yl)bicyclo[1.1.1]pentan-1-yl]acetamide]
5 to 50 nM	500 to 2000 nM	CCc1c(N2CCN(C(=O)c3ncncc3OC)[C@H]3CC[C@@H]32)c(=O)c2nn(C3=CCOCC3)nc2n1CC(=O)NC12CC(C(C)C)(C1)C2 [Compound I-167, 2-[2-(3,6-dihydro-2H-pyran-4-yl)-5-ethyl-6-[(1S,6S)-5-(5-methoxypyrimidine-4-carbonyl)-2,5-diazabicyclo[4.2.0]octan-2-yl]-7-oxo-2H,4H,7H-[1,2,3]triazolo[4,5-b]pyridin-4-yl]-N-[3-(propan-2-yl)bicyclo[1.1.1]pentan-1-yl]acetamide]
5 to 50 nM	500 to 2000 nM	CCc1c(N2CCN(C(=O)c3c(C#N)cncc3OC)[C@H]3CC[C@@H]32)c(=O)c2nn(C3=CCOCC3)nc2n1CC(=O)NC12CC(C(C)C)(C1)C2 [Compound I-168, 2-{6-[(1S,6S)-5-(3-cyano-5-methoxypyridine-4-carbonyl)-2,5-diazabicyclo[4.2.0]octan-2-yl]-2-(3,6-dihydro-2H-pyran-4-yl)-5-ethyl-7-oxo-2H,4H,7H-[1,2,3]triazolo[4,5-b]pyridin-4-yl}-N-[3-(propan-2-yl)bicyclo[1.1.1]pentan-1-yl]acetamide]
5 to 50 nM	2000 to 5000 nM	CCc1c(N2CCN(C(=O)c3cccc(N4CCN(C)CC4)c3OC)[C@H]3CC[C@@H]32)c(=O)c2nn(C3=CCOCC3)nc2n1CC(=O)NC12CC(C(C)C)(C1)C2 [Compound I-169, 2-[2-(3,6-dihydro-2H-pyran-4-yl)-5-ethyl-6-[(1S,6S)-5-[2-methoxy-3-(4-methylpiperazin-1-yl)benzoyl]-2,5-diazabicyclo[4.2.0]octan-2-yl]-7-oxo-2H,4H,7H-[1,2,3]triazolo[4,5-b]pyridin-4-yl]-N-[3-(propan-2-yl)bicyclo[1.1.1]pentan-1-yl]acetamide]
5 to 50 nM	> 5000 nM	CCc1c(N2CCN(C(=O)c3[nH]cnc3C#N)[C@H]3CC[C@@H]32)c(=O)c2nn(C3=CCOCC3)nc2n1CC(=O)NC12CC(C(C)C)(C1)C2 [Compound I-170, 2-{6-[(1S,6S)-5-(4-cyano-1H-imidazole-5-carbonyl)-2,5-diazabicyclo[4.2.0]octan-2-yl]-2-(3,6-dihydro-2H-pyran-4-yl)-5-ethyl-7-oxo-2H,4H,7H-[1,2,3]triazolo[4,5-b]pyridin-4-yl}-N-[3-(propan-2-yl)bicyclo[1.1.1]pentan-1-yl]acetamide]
≤ 5 nM	≤ 500 nM	CCc1c(N2CCN(C(=O)c3nocc3O)[C@H]3CC[C@@H]32)c(=O)c2nn(C3=CCOCC3)nc2n1CC(=O)NC12CC(C(C)C)(C1)C2 [Compound I-171, 2-[2-(3,6-dihydro-2H-pyran-4-yl)-5-ethyl-6-[(1S,6S)-5-(4-hydroxy-1,2-oxazole-3-carbonyl)-2,5-diazabicyclo[4.2.0]octan-2-yl]-7-oxo-2H,4H,7H-[1,2,3]triazolo[4,5-b]pyridin-4-yl]-N-[3-(propan-2-yl)bicyclo[1.1.1]pentan-1-yl]acetamide]
5 to 50 nM	≤ 500 nM	CCc1c(C2=CCN(C(=O)c3ncnc(C)c3O)CC2(C)C)c(=O)n2nc(C3=CCOCC3)nc2n1CC(=O)Nc1ccc(C(F)(F)F)cc1Cl [Compound I-174, N-[2-chloro-4-(trifluoromethyl)phenyl]-2-[2-(3,6-dihydro-2H-pyran-4-yl)-5-ethyl-6-[1-(5-hydroxy-6-methylpyrimidine-4-carbonyl)-3,3-dimethyl-1,2,3,6-tetrahydropyridin-4-yl]-7-oxo-4H,7H-[1,2,4]triazolo[1,5-a]pyrimidin-4-yl]acetamide]
